In the test the target is IGFBP-3 (Homo sapiens, UniProt P17936). The test is described as follows: BIAcore competition assay, IGFBP-3 binding to immobilized IGF-I. The note with it: for IGF-I Inhibition IC50 (mut)/IC50 (wt): bp3-01-ox variants by BIAcore, wt = bp3-01-ox. The protocol: A. BIAcore™ Competition Assay (for IGFBP-3 Binders)
IGF-I was immobilized on a dextran chip for inhibition assays using a BIAcore™ 2000 surface-plasmon-resonance device (BIAcore, Inc., Piscataway, N.J.) to measure free binding protein. […] Serial dilutions of peptide were mixed with a constant concentration (40 nM) of IGFBP-3. After incubation for >1 hour at room temperature, an aliquot of 20 μL was injected at a flow rate of 20 μL/min over the IGF-I chip. Following the injection, a response reading was taken to measure the relative amount of IGFBP-3 bound to the IGF-I.
Background: Surface plasmon resonance follows binding to a sensor surface in real time, without labels.

The mark [1] stands for this setting: bp3-01-ox variants by BIAcore competition assay, read-out: IGF-I Inhibition IC50.
The mark [2] stands for this setting: 40 nM IGFBP-3, 400 to 800 RU immobilized IGF-I, read-out: BIAcore Assay IC50, inhibition of IGF-I binding to IGFBP-3.

Experimental findings from patent US6632794B1, “Insulin-like growth factor agonist molecules” (Genentech, Inc., priority 1997, dated 2003) are described below.

Where two headings read alike, the source gives them in different places. Starred links: 1 amine or outer side, 2 acyl side, 3 side chain; linkers in the order of their positions; H or OH if unused. Positions of bridges follow the written chain, without caps; N, C: chain ends. Residues, ends and D or L forms follow the SMILES beside them. No end group written: not given here. Suc = O=C(CCC(=O)[*:2])[*:1]

Sequence of IGFBP-3 (P17936 28-291): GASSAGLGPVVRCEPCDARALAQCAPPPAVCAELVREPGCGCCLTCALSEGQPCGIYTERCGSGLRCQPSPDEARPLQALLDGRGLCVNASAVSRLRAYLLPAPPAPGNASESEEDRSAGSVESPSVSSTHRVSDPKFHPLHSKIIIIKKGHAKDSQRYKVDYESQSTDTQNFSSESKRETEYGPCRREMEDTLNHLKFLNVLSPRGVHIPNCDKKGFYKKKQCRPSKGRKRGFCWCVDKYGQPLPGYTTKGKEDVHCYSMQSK

With `CC(C)C[C@@H]1NC(=O)[C@H](Cc2ccc(O)cc2)NC(=O)[C@H](Cc2c[nH]c3ccccc23)NC(=O)[C@H](CCC(=O)O)NC(=O)[C@H](C)NC(=O)[C@H](C(C)C)NC(=O)[C@@H]2CCCN2C(=O)[C@H](Cc2c[nH]c3ccccc23)NC(=O)[C@@H](NC(=O)[C@@H](NC(=O)[C@@H](N)CCC(=O)O)C(C)C)CSSC[C@@H](C(=O)N[C@@H](CC(N)=O)C(=O)O)NC1=O` [bp3-27] (H-EVCWPVAEWYLCN-OH; disulfide 3-12; N-terminus and C-terminus assumed), the “IGF-I Inhibition IC50 (mut)/IC50 (wt)” value stood at 1.4. Also, the IC50 under setting [1] came out at 2.8 µM.
Consider `CSCC[C@@H]1NC(=O)[C@H](Cc2ccc(O)cc2)NC(=O)[C@@H]2CSSC[C@H](NC(=O)[C@H](CC(C)C)NC(=O)[C@@H]3CCCN3C1=O)C(=O)N[C@@H](CC(C)C)C(=O)N[C@H](C(=O)N[C@@H](Cc1ccc(O)cc1)C(=O)N[C@@H](CC(=O)O)C(=O)N[C@@H](CO)C(=O)N[C@@H](CC(=O)O)C(=O)O)CSSC[C@H](NC(=O)[C@H](CC(N)=O)NC(=O)[C@H](C)NC(=O)[C@@H](NC(=O)[C@@H](N)[C@@H](C)O)C(C)C)C(=O)N[C@@H](CC(=O)O)C(=O)N2` [BP08, TVANCDC*YMPLC*LCYDSD] (H-TVANCDCYMPLCLCYDSD-OH; disulfide 5-14, 7-12; N-terminus and C-terminus assumed), for which the IC50 was found to be 15 µM.
With `CC(C)C[C@@H]1NC(=O)[C@H](Cc2ccc(O)cc2)NC(=O)[C@H](Cc2c[nH]c3ccccc23)NC(=O)[C@H](CCC(=O)O)NC(=O)[C@H](C)NC(=O)[C@H](C(C)C)NC(=O)[C@@H]2CCCN2C(=O)[C@H](Cc2c[nH]c3ccccc23)NC(=O)[C@@H](NC(=O)[C@@H](NC(=O)[C@H](CCC(=O)O)NC(=O)[C@H](CCC(=O)O)NC(=O)[C@H](CO)NC(=O)[C@H](C)N)C(C)C)CSSC[C@@H](C(=O)N[C@@H](CC(N)=O)C(=O)O)NC1=O` [bp3-30] (H-ASEEVCWPVAEWYLCN-OH; disulfide 6-15; N-terminus and C-terminus assumed), the “IGF-I Inhibition IC50 (mut)/IC50 (wt)” value came out at 2.8. For the same compound, the IC50 under setting [1] amounted to 5.6 µM.
Consider `CC[C@H](C)[C@H](NC(=O)CCC(=O)O)C(=O)N1CCC[C@H]1C(=O)N[C@H](C(=O)N[C@@H](CO)C(=O)N1CCC[C@H]1C(=O)N[C@@H](CC(=O)O)C(=O)N[C@@H](Cc1c[nH]c2ccccc12)C(=O)N[C@@H](Cc1ccccc1)C(=O)N[C@H](C(=O)N[C@@H](CS)C(=O)N[C@@H](CCC(N)=O)C(N)=O)C(C)C)C(C)C` [bp3-108] (Suc-IPVSPDWFVCQ-NH2), for which the IC50 (BIAcore competition, read-out: IC50, inhibition of IGFBP-3 binding to IGF-I) was found to be 20 µM.
As for `CC(C)C[C@@H]1NC(=O)[C@H](Cc2ccc(O)cc2)NC(=O)[C@H](Cc2c[nH]c3ccccc23)NC(=O)[C@H](CCC(=O)O)NC(=O)[C@H](C)NC(=O)[C@H](C(C)C)NC(=O)[C@@H]2CCCN2C(=O)[C@H](Cc2c[nH]c3ccccc23)NC(=O)[C@@H](NC(=O)[C@@H](NC(=O)[C@H](CCC(=O)O)NC(=O)[C@@H](N)CCC(=O)O)C(C)C)CSSC[C@@H](C(=O)N[C@@H](CC(N)=O)C(=O)O)NC1=O` [bp3-28] (H-EEVCWPVAEWYLCN-OH; disulfide 4-13 (inferred); N-terminus and C-terminus assumed), the “IGF-I Inhibition IC50 (mut)/IC50 (wt)” value stood at 2.7. Moreover, under setting [1], the concentration for half-maximal inhibition (IC50) is 5.4 µM.
For `CC(C)C[C@@H]1NC(=O)[C@H](Cc2ccc(O)cc2)NC(=O)[C@H](Cc2c[nH]c3ccccc23)NC(=O)[C@H](CCC(=O)O)NC(=O)[C@H](C)NC(=O)[C@H](C(C)C)NC(=O)[C@@H]2CCCN2C(=O)[C@H](Cc2c[nH]c3ccccc23)NC(=O)[C@@H](NC(=O)[C@@H](NC(=O)[C@H](CCC(=O)O)NC(=O)[C@H](CCC(=O)O)NC(=O)[C@@H](N)CO)C(C)C)CSSC[C@@H](C(=O)N[C@@H](CC(N)=O)C(N)=O)NC1=O` [bp3-39] (H-SEEVCWPVAEWYLCN-NH2; disulfide 5-14 (inferred); N-terminus assumed), in that order: 0.33 and 0.66 µM.
The compound `CSCC[C@H](NC(=O)[C@@H]1CSSC[C@H](NC(=O)[C@H](CC(=O)O)NC(=O)[C@@H](NC(=O)CNC(=O)[C@@H](N)[C@@H](C)O)C(C)C)C(=O)N[C@@H](CCC(N)=O)C(=O)N[C@H]2CSSC[C@H](NC(=O)[C@H](Cc3c[nH]cn3)NC(=O)[C@H](C(C)C)NC(=O)[C@@H]3CCCN3C(=O)CNC2=O)C(=O)N[C@@H](C(C)C)C(=O)N1)C(=O)N[C@@H](CC(=O)O)C(=O)N[C@@H](Cc1c[nH]c2ccccc12)C(=O)N[C@@H](C)C(=O)O` [BP06, TGVDCQC*GPVHC*VCMDWA] (H-TGVDCQCGPVHCVCMDWA-OH; disulfide 5-14, 7-12; N-terminus and C-terminus assumed) showed an IC50 of 5 µM.
In the case of `CC(C)C[C@@H]1NC(=O)[C@H](Cc2ccc(O)cc2)NC(=O)[C@H](Cc2c[nH]c3ccccc23)NC(=O)[C@H](CCC(=O)O)NC(=O)[C@H](C)NC(=O)[C@H](C(C)C)NC(=O)[C@@H]2CCCN2C(=O)[C@H](Cc2c[nH]c3ccccc23)NC(=O)[C@@H](NC(=O)[C@@H](NC(=O)[C@H](CCC(=O)O)NC(=O)[C@@H]2CCCN2C(=O)CN)[C@@H](C)O)CSSC[C@@H](C(=O)N[C@@H](CC(N)=O)C(=O)O)NC1=O` [bp3-41] (H-GPETCWPVAEWYLCN-OH; disulfide 5-14; N-terminus and C-terminus assumed), the “IGF-I Inhibition IC50 (mut)/IC50 (wt)” value came to 2.0. Also, the IC50 under setting [1] is 4 µM.
Turning to `CC[C@H](C)[C@@H]1NC(=O)[C@@H](NC(=O)[C@@H](NC(=O)[C@H](Cc2c[nH]c3ccccc23)NC(=O)CNC(=O)[C@H](CC(=O)O)NC(=O)[C@H](CC(C)C)NC(=O)[C@@H](N)CCC(=O)O)C(C)C)CSSC[C@@H](C(=O)N[C@@H](Cc2ccc(O)cc2)C(=O)N[C@@H](CC(C)C)C(=O)N[C@@H](C)C(=O)N[C@@H](CCC(=O)O)C(=O)NCC(N)=O)NC(=O)[C@H](CC(C)C)NC(=O)[C@H](CC(N)=O)NC(=O)[C@H](CCC(N)=O)NC(=O)[C@H](CCC(=O)O)NC(=O)CNC(=O)[C@H](C(C)C)NC(=O)[C@H](CCCCN)NC1=O` [BP3-23] (H-ELDGWVCIKVGEQNLCYLAEG-NH2; disulfide 7-16; N-terminus assumed), the concentration for half-maximal inhibition (IC50) under setting [2] came to 220 µM.
Still for that read-out and setting: under `CC[C@H](C)[C@H](NC(=O)[C@H](Cc1ccc(O)cc1)NC(=O)[C@H](C)NC(=O)CNC(=O)[C@@H](NC(=O)[C@@H](N)CCCNC(=N)N)C(C)C)C(=O)N[C@@H](CO)C(=O)N[C@H]1CSSC[C@@H](C(=O)N[C@@H](Cc2c[nH]c3ccccc23)C(=O)N[C@H](C(=O)N[C@@H](CCC(=O)O)C(=O)N[C@@H](CC(=O)O)C(=O)N[C@@H](CC(C)C)C(=O)N[C@@H](CC(C)C)C(=O)N[C@@H](CC(=O)O)C(=O)NCC(N)=O)C(C)C)NC(=O)[C@H](CCC(=O)O)NC(=O)[C@H]([C@@H](C)O)NC(=O)[C@H](CCC(=O)O)NC(=O)[C@H](CO)NC1=O` [BP3-25] (H-RVGAYISCSETECWVEDLLDG-NH2; disulfide 8-13) stands greater than 1000 µM; under `CC[C@H](C)[C@@H]1NC(=O)[C@H](C(C)C)NC(=O)[C@H](Cc2ccc(O)cc2)NC(=O)CNC(=O)[C@@H]2CCCN2C(=O)CNC(=O)[C@H](CCC(=O)O)NC(=O)[C@H](Cc2ccccc2)NC(=O)[C@@H](NC(=O)[C@H](CCC(=O)O)NC(=O)[C@H](CO)NC(=O)[C@H](CCC(=O)O)NC(=O)[C@@H](N)CCC(=O)O)CSSC[C@@H](C(=O)NCC(=O)N[C@@H](CC(C)C)C(=O)N[C@H](C(=O)NCC(=O)O)C(C)C)NC1=O` [BP3-4B3.3] (H-EESECFEGPGYVICGLVG-OH; disulfide 5-14; N-terminus and C-terminus assumed), 80 µM.
For the compound WPVAEWYLCN [bp3-24], the IC50 under setting [1] was greater than 1000 µM.
`CC(C)C[C@H](NC(=O)[C@@H](NC(=O)[C@H](Cc1ccc(O)cc1)NC(=O)[C@@H]1CSSC[C@H](NC(=O)[C@@H](NC(=O)[C@@H](NC(=O)[C@H](CCCCN)NC(=O)[C@H](Cc2ccccc2)NC(=O)[C@@H](N)Cc2c[nH]c3ccccc23)[C@@H](C)O)C(C)C)C(=O)N[C@@H](Cc2ccc(O)cc2)C(=O)N[C@@H](CCC(=O)O)C(=O)N[C@@H](Cc2c[nH]c3ccccc23)C(=O)N[C@@H](CCC(=O)O)C(=O)N[C@@H](CC(=O)O)C(=O)N[C@@H](CCC(=O)O)C(=O)N[C@@H](C(C)C)C(=O)N[C@@H](CCC(N)=O)C(=O)N1)[C@@H](C)O)C(=O)N[C@@H](CCC(=O)O)C(=O)N[C@@H](CCC(=O)O)C(=O)NCC(N)=O` [BP3-24] (H-WFKTVCYEWEDEVQCYTLEEG-NH2; disulfide 6-15): the IC50 under setting [2] was in the range of 100 to 300 µM.
On to `CC(=O)N[C@@H](CO)C(=O)N[C@@H](CCC(=O)O)C(=O)N[C@@H](CCC(=O)O)C(=O)N[C@H](C(=O)N[C@H]1CSSC[C@@H](C(=O)N[C@@H](CC(N)=O)C(N)=O)NC(=O)[C@H](CC(C)C)NC(=O)[C@H](Cc2ccc(O)cc2)NC(=O)[C@H](Cc2c[nH]c3ccccc23)NC(=O)[C@H](CCC(=O)O)NC(=O)[C@H](C)NC(=O)[C@H](C(C)C)NC(=O)[C@@H]2CCCN2C(=O)[C@H](Cc2c[nH]c3ccccc23)NC1=O)C(C)C` [bp3-40] (Ac-SEEVCWPVAEWYLCN-NH2; disulfide 5-14 (inferred)), for which the “IGF-I Inhibition IC50 (mut)/IC50 (wt)” value is given as 0.33. Moreover, the IC50 under setting [1] amounted to 0.66 µM.
For the compound `CC[C@H](C)[C@@H]1NC(=O)[C@H](Cc2ccc(O)cc2)NC(=O)CNC(=O)[C@H](CCC(N)=O)NC(=O)[C@H](CC(=O)O)NC(=O)[C@H](Cc2c[nH]cn2)NC(=O)[C@H](CCCNC(=N)N)NC(=O)[C@H](CC(=O)O)NC(=O)[C@H](Cc2c[nH]c3ccccc23)NC(=O)[C@@H](N)CSSC[C@@H](C(=O)N[C@H](C(=O)N[C@H](C(=O)N[C@@H](CC(=O)O)C(=O)N[C@@H](CO)C(=O)O)[C@@H](C)O)[C@@H](C)O)NC1=O` [BP13] (H-CWDRHDQGYICTTDS-OH; disulfide 1-11), the IC50 under setting [2] is greater than 1000 µM.

Usually IC50 stands for the concentration at which inhibition is half-maximal.
